ChEMBL document CHEMBL2069300 (J Med Chem, 2012)
Values after ≈ are worked out from the molar mass of the structure shown.

assay: Aqueous solubility of the compound in phosphate buffered saline at pH 7.4; type: physicochemical; details: buffer

Row | Structure (SMILES) | solubility [µM]
1 | CCCS(=O)(=O)c1oc(-c2cccs2)nc1S(=O)(=O)c1ccc(F)cc1 | 21.9 (≈ 9.1 µg/mL)
2 | COC(=O)c1ccc2c(c1)C(C)(C)C(/C=C/c1ccc(O)cc1)=[N+]2C | 218.7
3 | CCc1ccc(S(=O)(=O)ON2C(=O)c3ccccc3C2=O)cc1 | 462 (≈ 153 µg/mL)
4 | COC(=O)c1ccc2c(c1)C(C)(C)C(/C=C/c1ccc(OC)cc1)=[N+]2C | 0.1
5 | O=Cc1nc2ccccc2n1Cc1ccc(Cl)cc1Cl | 15.3 (≈ 4.67 µg/mL)
6 | Cc1[nH]c2ccccc2c1C(Nc1ccccc1)c1ccc(CCCO)cc1 (centres undefined) | 503.4 (≈ 187 µg/mL)
7 | Cc1cccc(N2COc3ccc4ccccc4c3C2)c1 | 377.4 (≈ 104 µg/mL)
8 | Cc1c(C=O)c(C(=O)O)c(C)n1Cc1ccc(Cl)cc1 | 576 (≈ 168 µg/mL)
9 | CC(C)S(=O)(=O)c1oc(-c2cccs2)nc1S(=O)(=O)c1ccccc1 | 34.2 (≈ 13.6 µg/mL)
10 | CCCCNC(=O)Cn1sc2nc(C)cc(C)c2c1=O | 487 (≈ 143 µg/mL)
11 | COc1ccc(OC)c(S(=O)(=O)ON2C(=O)c3ccccc3C2=O)c1 | 453.9 (≈ 165 µg/mL)
12 | COCC(=O)Oc1c(Sc2ccc(Cl)cc2)c(C)nn1-c1ccccc1 | 493 (≈ 192 µg/mL)
13 | COc1ccc(/C=C/C2=[N+](C)c3ccc(OC)cc3C2(C)C)cc1 | 273.3
14 | O=Cc1nc2ccccc2n1Cc1ccc2ccccc2c1 | 42.1 (≈ 12.1 µg/mL)
15 | Nc1nc2ccc(S(=O)(=O)N3CCCCC3)cc2s1 | 338.8 (≈ 101 µg/mL)

Next, values leading:

Row | solubility [µM] | Structure (SMILES)
16 | 17.6 (≈ 7.56 µg/mL) | CC(C)CS(=O)(=O)c1oc(-c2cccs2)nc1S(=O)(=O)c1ccc(F)cc1
17 | 49.9 (≈ 19.1 µg/mL) | CCS(=O)(=O)c1oc(-c2cccs2)nc1S(=O)(=O)c1ccccc1
18 | 0.7 | CCOc1ccc(/C=C/C2=[N+](C)c3ccc(C(=O)OC)cc3C2(C)C)cc1
19 | 0.2 | COC(=O)c1ccc(/C=C/C2=[N+](C)c3ccc(OC)cc3C2(C)C)cc1

assay: Stability of the compound in water at neutral pH after 24 hrs; type: physicochemical; details: buffer

Row | Structure (SMILES) | Stability
20 | Cc1ccc(NC(c2ccccc2Cl)c2c(C)[nH]c3ccccc23)cc1 (centres undefined) | Stable
21 | COc1ccc(C(Nc2ccccc2)c2c(C)[nH]c3ccccc23)cc1 (centres undefined) | Stable
22 | COc1ccccc1NC(c1ccccc1Cl)c1c(C)[nH]c2ccccc12 (centres undefined) | Stable
23 | Cc1[nH]c2ccccc2c1C(Nc1ccc(C(F)(F)F)cc1)c1ccccc1Cl (centres undefined) | Stable
24 | Cc1[nH]c2ccccc2c1C(Sc1ccccc1)c1ccccc1Cl (centres undefined) | Stable
25 | Cc1[nH]c2ccccc2c1C(Nc1ccccc1)c1ccc(CCCO)cc1 (centres undefined) | Stable
26 | Cn1cc(C(Nc2ccccc2)c2ccccc2Cl)c2ccccc21 (centres undefined) | Stable
27 | Cc1[nH]c2ccccc2c1C(C)Nc1ccccc1 (centres undefined) | Stable
28 | Cc1[nH]c2ccccc2c1C(Nc1ccccc1)c1ccc([N+](=O)[O-])cc1 (centres undefined) | Stable
29 | Cc1ccc(C(Nc2ccccc2)c2c(C)[nH]c3ccccc23)cc1 (centres undefined) | Stable
30 | Cc1[nH]c2ccccc2c1C(Nc1ccc([N+](=O)[O-])cc1)c1ccccc1Cl (centres undefined) | Stable
31 | Cc1[nH]c2ccccc2c1C(Nc1ccc(N(C)C)cc1)c1ccccc1Cl (centres undefined) | Stable

Continued, values first:

Row | Stability | Structure (SMILES)
32 | Stable | Clc1ccccc1C(Nc1ccccc1)c1c[nH]c2ccccc12 (centres undefined)
33 | Stable | Cc1[nH]c2ccccc2c1C(Nc1ccc(Cl)cc1)c1ccccc1Cl (centres undefined)
34 | Stable | Cc1[nH]c2ccccc2c1C(Nc1ccccc1)c1ccc(Cl)cc1 (centres undefined)
35 | Stable | Cc1[nH]c2ccccc2c1C(Nc1ccccc1)c1ccccc1Cl (centres undefined)
36 | Stable | COc1ccc(NC(c2ccccc2Cl)c2c(C)[nH]c3ccccc23)cc1 (centres undefined)
37 | Stable | Cc1[nH]c2ccccc2c1C(Nc1ccccc1)c1ccc2ccccc2c1 (centres undefined)
38 | Stable | Cc1[nH]c2ccccc2c1C(Nc1ccccc1)c1ccc(N(C)C)cc1 (centres undefined)
39 | Stable | Cc1[nH]c2ccccc2c1C(Nc1ccccc1)c1ccccc1 (centres undefined)
